Results reported in the NIST ThermoML archive (doi:10.1021/je900732r).

Experiment: mn = molality of the nth substance listed, in mol/kg
Settings: 101 kPa, Liquid; for speed of sound: Pulse-echo method

O=S(=O)([O-])C(F)(F)F.O=S(=O)([O-])C(F)(F)F.[Cu+2] [copper(II) trifluoromethanesulfonate] + CO
Settings | mass density, 283.15 K [kg/m3] | mass density, 288.15 K [kg/m3] | mass density, 293.15 K [kg/m3] | mass density, 298.15 K [kg/m3] | mass density, 303.15 K [kg/m3] | mass density, 308.15 K [kg/m3] | mass density, 313.15 K [kg/m3] | speed of sound, 298.15 K [m/s]
m1 = 0.1213 | 829.484 | 824.791 | 820.094 | 815.38 | 810.649 | 805.885 | 801.107 | 1106
m1 = 0.1418 | 834.535 | 829.841 | 825.141 | 820.428 | 815.692 | 810.942 | 806.159 | 1106.6
m1 = 0.1772 | 843.312 | 838.612 | 833.908 | 829.19 | 824.45 | 819.682 | 814.901 | 1107.4
m1 = 0.2047 | 850.214 | 845.512 | 840.803 | 836.081 | 831.338 | 826.565 | 821.777 | 1108.2
m1 = 0.231 | 856.972 | 852.265 | 847.554 | 842.828 | 838.081 | 833.302 | 828.513 | 1109.1
m1 = 0.2571 | 863.707 | 858.996 | 854.279 | 849.545 | 844.805 | 840.033 | 835.231 | 1109.7
m1 = 0.2847 | 871.006 | 866.292 | 861.57 | 856.839 | 852.088 | 847.311 | 842.504 | 1110.5

C[S+](C)[O-] [dimethyl sulfoxide] + [Co+2].[O-][Cl+3]([O-])([O-])[O-].[O-][Cl+3]([O-])([O-])[O-]
m2 = 0
Settings | mass density [kg/m3]
293.15 K | 1100.22
298.15 K | 1095.19
303.15 K | 1090.18
313.15 K | 1080.12
323.15 K | 1070.08
333.15 K | 1060.03

C[S+](C)[O-] [dimethyl sulfoxide] + [Cu+2].[O-][Cl+3]([O-])([O-])[O-].[O-][Cl+3]([O-])([O-])[O-]
m2 = 0
Settings | mass density [kg/m3]
293.15 K | 1100.23
298.15 K | 1095.2
303.15 K | 1090.18
313.15 K | 1080.12
323.15 K | 1070.08
333.15 K | 1060.04

C[S+](C)[O-] [dimethyl sulfoxide] + [Mn+2].[O-][Cl+3]([O-])([O-])[O-].[O-][Cl+3]([O-])([O-])[O-]
m2 = 0
Settings | mass density [kg/m3]
293.15 K | 1100.22
298.15 K | 1095.19
303.15 K | 1090.17
313.15 K | 1080.12
323.15 K | 1070.08
333.15 K | 1060.04

C[S+](C)[O-] [dimethyl sulfoxide] + [Ni+2].[O-][Cl+3]([O-])([O-])[O-].[O-][Cl+3]([O-])([O-])[O-]
m2 = 0
Settings | mass density [kg/m3]
293.15 K | 1100.22
298.15 K | 1095.19
303.15 K | 1090.17
313.15 K | 1080.12
323.15 K | 1070.08
333.15 K | 1060.04

C[S+](C)[O-] [dimethyl sulfoxide] + [O-][Cl+3]([O-])([O-])[O-].[O-][Cl+3]([O-])([O-])[O-].[Zn+2]
m2 = 0
Settings | mass density [kg/m3]
293.15 K | 1100.23
298.15 K | 1095.2
303.15 K | 1090.18
313.15 K | 1080.12
323.15 K | 1070.08
333.15 K | 1060.04

[Mn+2].[O-][Cl+3]([O-])([O-])[O-].[O-][Cl+3]([O-])([O-])[O-] [manganese (II) perchlorate] + C[S+](C)[O-]
mass density [kg/m3]
Settings | 293.15 K | 298.15 K | 303.15 K | 313.15 K | 323.15 K | 333.15 K
m1 = 0.01626 | 1103.52 | 1098.5 | 1093.49 | 1083.46 | 1073.44 | 1063.42
m1 = 0.0211 | 1104.5 | 1099.48 | 1094.47 | 1084.45 | 1074.44 | 1064.43
m1 = 0.02843 | 1105.99 | 1100.98 | 1095.97 | 1085.96 | 1075.96 | 1065.96
m1 = 0.037 | 1107.74 | 1102.73 | 1097.73 | 1087.73 | 1077.74 | 1067.75
m1 = 0.04758 | 1109.9 | 1104.9 | 1099.91 | 1089.92 | 1079.94 | 1069.97
m1 = 0.05763 | 1111.96 | 1106.97 | 1101.98 | 1092.01 | 1082.05 | 1072.09
m1 = 0.07358 | 1115.24 | 1110.26 | 1105.28 | 1095.33 | 1085.39 | 1075.45
m1 = 0.09456 | 1119.59 | 1114.62 | 1109.65 | 1099.73 | 1089.82 | 1079.91
m1 = 0.1139 | 1123.62 | 1118.65 | 1113.7 | 1103.8 | 1093.92 | 1084.04
m1 = 0.1337 | 1127.77 | 1122.82 | 1117.87 | 1108 | 1098.14 | 1088.29
m1 = 0.1569 | 1132.59 | 1127.65 | 1122.73 | 1112.88 | 1103.06 | 1093.24
m1 = 0.1754 | 1136.6 | 1131.67 | 1126.75 | 1116.94 | 1107.13 | 1097.34
